From patent US9062123B2, “Labelled adrenomedullin derivatives and their use for imaging and therapy” (PLUMOSCIENCE INC., priority 2004, dated 2015)
Read-outs that look alike come from different tables or passages of the source. One block for each molecule: values may come before it. Ends that are not written are not given here.

How the values were obtained:
[1] = Plasma kinetics of 99mTc-cyclic AM and 99mTc-linear AM in dogs; format: in vivo, dog; settings: two-compartment model
Procedure: The radiolabelled AM derivatives were injected in a volume of 1.5 mL into a right jugular vein catheter. A series of 200 μl blood samples were collected 1 min after the initial injection, then repeated every 5 min for a 30-min period. After each collection, an equal volume of saline was injected into the animal to maintain blood volume and pressure. The blood samples were then placed in a gamma counter (model 1470 Wizard, Wallac, Finland) to determine ^99mTc activity. Results were expressed as a percentage of total radioactivity injected.

[2] = dog, in vivo, iv
Procedure: Following intravenous injection of linear ^99mTc hAM1-52, dynamic acquisition of the lungs, heart, liver and kidneys was recorded for a 30-min period (one frame/sec during the first minute, then one frame/min for the remaining time). Static acquisitions were also recorded for whole individual organs, including lungs, kidneys, liver, heart, bladder, gallbladder and muzzle, at 30, 60, 120, 240 minutes after initial injection. These recordings were performed both in ventral and dorsal positions. Dynamic and static acquisitions were evaluated by using Matlab version 7.01 image analysis tools software. The ^99mTc total count, ^99mTc mean count, and region of interest (ROI) size were calculated for each organ. Data correction was applied for 1) radioactive decay, 2) table correction (dorsal images only), 3) geometric mean, and 4) organ's attenuation based on transmission factor. Results were expressed as a percentage of total radioactivity injected.

[3] = rat, in vivo
Text: The animals were then sacrificed and the lungs, liver, kidneys (en bloc with the adrenal glands) and heart were removed and gravity drained.

[4] = dog, in vivo
Procedure: FIG. 16 illustrates in vivo single-pass measurement of purified ^99mTc linear hAM1-52 clearance in dogs. Dogs were anesthetized and a catheter was inserted into the carotid artery and positioned just above the aortic valve. This catheter is connected to a peristaltic pump for automated blood withdrawal. Another catheter is placed into the jugular vein and positioned in the right ventricular outflow tract to allow bolus injection of the study tracers. A bolus was prepared by adding 2 mCi of purified ^99mTc linear hAM1-52 to 3 ml of Evans blue dye labeled albumin and 0.9% saline for a final volume of 6 ml. A single bolus indicator-dilution experiment was performed. The collected samples were processed and indicator-dilution curves constructed and analysed. Mean tracer ^99mTc linear hAM1-52 AM extraction during the pulmonary transit time was computed from the curves. Mean tracer extraction corresponds to the difference between the areas of the outflow curve of the vascular reference (albumin) and that of the extracted tracer (^99mTc linear hAM1-52). Recirculation of the tracers apparent in the terminal portion of the curves is removed by linear extrapolation of the semi-logarithmic down slopes.

[5] = Kidney uptake of 99mTc-linear AM in rats with monocrotaline kidney damage; format: in vivo, rat; settings: for kidney activity, % of total activity injected: external counting of the organs; for kidney uptake, % of total activity injected: external detection by gamma camera, 30 minutes
Procedure: Kidney damage was induced by a single intraperitoenal injection of monocrotaline 60 mg/kg in rats. Three weeks later the animal received were anaesthetized and mechanically ventilated. […] By both methods, the activity in the kidneys was expressed as a percentage of the total activity injected.

[6] = for plasma level: after 10 minutes
Procedure: The animals were anesthetized by an initial intra-muscular dose of xylazine (10 mg/kg) and ketamine (50 mg/kg), followed by an intraperitoneal injection of heparin (2000 U, Sigma Chemical Co.). Additional doses of xylazine/ketamine were used if noxious stimuli (hind feet pinching) could elicit nociceptive motor reflexes or changes of the systemic blood pressure.
99mTc-AM-L was injected in a volume of 200 μl (0.3 pmol, 0.5 mCi) into the right jugular vein.
Differences between groups were evaluated by two-tailed independent samples t-tests. Plasma kinetics of ^99mTc-AM-L were analyzed using a two compartments pharmacokinetic model with Prism v4.0 software and the fitted curves were compared using an F test. All values are reported as means±standard deviations.

[7] = in vivo
Text: FIGS. 18 and 19 illustrate respectively images of the lungs of a dog and a rat to which purified ^99mTc linear hAM1-52 has been administered.

[8] = dog, in vivo; remark: listed apart in the source
Procedure: Following intravenous injection, dynamic acquisition of the lungs, heart, liver and kidneys was recorded for a 30-min period (one frame/sec during the first minute, then one frame/min for the remaining time). Static acquisitions was also recorded for whole individual organs, including lungs, kidneys, liver, heart, bladder, gallbladder and muzzle, at 30, 60, 120, 240 minutes after initial injection. These recordings were performed both in ventral and dorsal positions. Dynamic and static acquisitions were evaluated by using Matlab version 7.01 image analysis tools software. The ^99mTc total count, ^99mTc mean count, and region of interest (ROI) size were calculated for each organ. Data correction was applied for 1) radioactive decay, 2) table correction (dorsal images only), 3) geometric mean, and 4) organ's attenuation based on transmission factor. Results were expressed as a percentage of total radioactivity injected.
The images were acquired using a Siemens dual hear Ecam Gamma camera 120 min after injection of the compound.

[9] = Plasma kinetics of 125I-rAM(1-50) after single intravenous injection in rats; format: in vivo, rat; settings: given 5 min before the 125I-rAM(1-50) bolus
Procedure: All experimental procedures were performed in accordance with the regulations and ethical guidelines from Canadian Council for the Care of Laboratory Animals, and received approval by the Animal Ethics and Research Committee of the Montreal Heart Institute. Male Sprague-Dawley rats (Charles River), weighing between 400-450 g, were anaesthetized by an initial intramuscular dose of xylazine (10 mg/kg of body weight) and ketamine (50 mg/kg of body weight), followed by an intra-peritoneal injection of heparin (2000 units; Sigma). Catheters were inserted into the right carotid artery and jugular vein. Heart rate and systemic blood pressure were monitored continuously. […] Venous and arterial blood samples (3 ml) were collected and centrifuged (1875 g, 15 min, 4° C.) and the plasma saved for subsequent measurement of irAM (immunoreactive AM). A similar amount of saline was infused into the animals to prevent hypovolaemia.
The animals were then killed and the lungs, liver, kidneys (en bloc with the adrenal glands) and heart were removed and gravity drained. […] Results are expressed as a percentage of total radioactivity injected. […]
Multiple group comparisons were performed by factorial ANOVA, followed, when a significant interaction was found, by the Bonferroni/Dunn t test. […] In the canine experiments, the effect of drugs on AM extraction was analyzed by two-tailed paired Student's t tests. […]

[10] = Biodistribution / organ retention of 125I-rAM(1-50) in rats, with and without antagonists; format: in vivo, rat
Procedure: The animals were then killed and the lungs, liver, kidneys (en bloc with the adrenal glands) and heart were removed and gravity drained. […] Results are expressed as a percentage of total radioactivity injected.
The drugs were given by either intraarterial (n=10 in each group) or intravenous (n=10 in each group) injection 5 min before the ^125I-rAM(1-50) bolus. Plasma samples and tissues were treated as described above.

[11] = In vivo single-pass pulmonary extraction of 125I-rAM(1-50) in dogs (indicator-dilution); parameters: species or system dog; settings: for single-pass pulmonary extraction of 125I-rAM(1-50) after administration of the substance: dogs, intravenous bolus of 100 nmol, 5 min before
Procedure: Dogs were anaesthetized and prepared as described in detail in reference, which is hereby incorporated by reference. A catheter was inserted into the carotid artery and positioned just above the aortic valve. This catheter was connected to a peristaltic pump for automated blood withdrawal. Another catheter was placed into the jugular vein and positioned in the right ventricular outflow tract to allow bolus injection of the study tracers. A bolus was prepared by adding 3.3 μCi of 125I-rAM(1-50) (2.9 pmol) to 3 ml of Evans-Blue-dye labelled albumin and 0.9% saline to give a final volume of 6 ml. The mixture was separated into three equal parts for the two successive experiments in each animal and to realize dilution-curve standards. A baseline single-bolus indicator-dilution experiment was performed.
The collected samples were processed and indicator-dilution curves constructed and analyzed as described in previously cited reference 13. Cardiac output and mean tracer AM extraction during the pulmonary transit time were computed from the curves. Mean tracer extraction corresponded to the difference between the areas of the outflow curve of the vascular reference (albumin) and that of the extracted tracer (AM). Recirculation of the tracers apparent in the terminal portion of the curves was removed by linear extrapolation of the semi-logarithmic down slopes.

[12] = target: AM1 (CRLR+RAMP2) receptor, lungs of dogs; experiment: Displacement of labelled human adrenomedullin in the lungs of dogs; format: binding, dog; settings: displacement of labelled hAM
Chain of AM1 (CRLR+RAMP2) receptor, lungs of dogs (A0A8I3NWR4 25-462): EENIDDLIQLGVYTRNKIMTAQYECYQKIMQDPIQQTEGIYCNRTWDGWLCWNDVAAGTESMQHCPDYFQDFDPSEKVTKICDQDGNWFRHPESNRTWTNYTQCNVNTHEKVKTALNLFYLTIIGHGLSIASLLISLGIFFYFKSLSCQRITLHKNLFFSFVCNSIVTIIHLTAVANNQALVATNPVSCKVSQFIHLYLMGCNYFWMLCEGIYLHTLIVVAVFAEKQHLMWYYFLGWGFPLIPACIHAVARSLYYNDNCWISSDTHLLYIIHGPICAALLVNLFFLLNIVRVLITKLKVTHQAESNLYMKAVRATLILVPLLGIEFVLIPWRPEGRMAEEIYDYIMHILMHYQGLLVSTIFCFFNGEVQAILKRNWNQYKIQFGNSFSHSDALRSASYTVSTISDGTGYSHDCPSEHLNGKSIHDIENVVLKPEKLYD

distribution half-life [1]: less than two min
Molecule: CC[C@H](C)[C@H](NC(=O)[C@H](CCC(N)=O)NC(=O)[C@H](Cc1c[nH]cn1)NC(=O)[C@H](C)NC(=O)[C@H](CC(C)C)NC(=O)[C@H](CCCCN)NC(=O)[C@H](CCC(N)=O)NC(=O)[C@@H](NC(=O)[C@@H](NC(=O)[C@@H]1CSSC[C@H](NC(=O)CNC(=O)[C@H](Cc2ccccc2)NC(=O)[C@H](CO)NC(=O)[C@H](CCCNC(=N)N)NC(=O)[C@H](CC(C)C)NC(=O)CNC(=O)[C@H](CCC(N)=O)NC(=O)[C@H](Cc2ccccc2)NC(=O)[C@H](CC(N)=O)NC(=O)[C@H](CC(N)=O)NC(=O)[C@H](CCSC)NC(=O)[C@H](CO)NC(=O)[C@H](CCC(N)=O)NC(=O)[C@H](CCCNC(=N)N)NC(=O)[C@H](Cc2ccc(O)cc2)NC(=O)CN(CCN(CCN(CC(=O)O)CC(=O)O)CC(=O)O)CC(=O)O)C(=O)N[C@@H](CCCNC(=N)N)C(=O)N[C@@H](Cc2ccccc2)C(=O)NCC(=O)N[C@@H]([C@@H](C)O)C(=O)N1)[C@@H](C)O)C(C)C)C(=O)N[C@@H](Cc1ccc(O)cc1)C(=O)N[C@@H](CCC(N)=O)C(=O)N[C@@H](Cc1ccccc1)C(=O)N[C@H](C(=O)N[C@@H](CC(=O)O)C(=O)N[C@@H](CCCCN)C(=O)N[C@@H](CC(=O)O)C(=O)N[C@@H](CCCCN)C(=O)N[C@@H](CC(=O)O)C(=O)N[C@@H](CC(N)=O)C(=O)N[C@H](C(=O)N[C@@H](C)C(=O)N1CCC[C@H]1C(=O)N[C@@H](CCCNC(=N)N)C(=O)N[C@@H](CO)C(=O)N[C@@H](CCCCN)C(=O)N[C@H](C(=O)N[C@@H](CO)C(=O)N1CCC[C@H]1C(=O)N[C@@H](CCC(N)=O)C(=O)NCC(=O)N[C@@H](Cc1ccc(O)cc1)C(N)=O)[C@@H](C)CC)C(C)C)[C@@H](C)O [^99mTc-cyclic AM, metal not drawn]

Molecule: ^99mTc-linear AM: linear hAM(1-52) labelled directly with 99mTc
lung retention [2]: 24% | lung retention [3]: significantly retained by lungs | route of elimination [3]: eliminated by the kidneys (mostly) and the liver | thyroid uptake [3]: minimal | time for which lung uptake is maintained [3]: at least 1 hour | mean single pass extraction by the lung [4]: 21% | kidney activity, % of total activity injected ([5]; control rats): 27%±6% | kidney uptake, % of total activity injected ([5]; control rats): 23%±3% | kidney activity, % of total activity injected ([5]; monocrotaline treated rats): 11%±7% | kidney uptake, % of total activity injected ([5]; monocrotaline treated rats): 10%±6% | plasma level ([6]; PAH (MCT) rats): 2.08±0.65 % ID | plasma level ([6]; control rats): 1.25±0.28 % ID | plasma levels in PAH compared to control animals ([6]; fitted curves, rats): approximately two-fold higher | pulmonary uptake, image ([7]; dog): relatively specific and homogeneous pulmonary uptake | pulmonary uptake, image ([7]; rat): relatively specific and homogeneous pulmonary uptake | kidney retention [8]: 20-30% | kidney retention, whole body imaging [8]: significantly retained by the kidney | reduction in kidney uptake after MCT (MCT versus control rats): about 50% | heart uptake, ex vivo (PAH (MCT) rats): 0.77±0.46 % ID | lung uptake, in vivo biodistribution (PAH (MCT) rats, gamma camera, 30 minutes): 4±1% | lung retention, ex vivo (PAH (MCT) rats, gamma counter, 30 minutes): 3±1% | reduction in lung uptake in PAH (PAH versus control rats): ~70% | heart uptake, ex vivo (rat, in vivo): 0.18±0.03 % ID | lung retention, ex vivo (rat, in vivo): 11±2 % ID | liver, kidney and bladder activities, MCT group compared to control group (rats, 30 minutes): increased liver uptake but lower kidney and bladder activities

IC50 [12]: 810 nM
Molecule: hAM(22-52): C-terminal human AM fragment that blocks the specific AM receptor
effect on plasma kinetics of radiolabelled rAM(1-50) [9]: did not modify plasma kinetics | effect on activity of 125I-rAM(1-50) retained in kidneys ([10]; given before the tracer): elevated the retained activity | effect on biodistribution of 125I-rAM(1-50) ([10]; given before the tracer): did not significantly modify this distribution | effect on pulmonary first-pass retention of 125I-rAM(1-50) ([10]; prior administration): not affected | single-pass pulmonary extraction of 125I-rAM(1-50) after administration of the substance [11]: 31.4±3.3%

Molecule: unlabelled rAM(1-50): unlabelled rat adrenomedullin (1-50), American Peptide (YRQSMNQGSRSTGCRFGTCTMQKLAHQIYQFTDKDKDGMAPRNKISPQGY; ends and bridges not checked; cysteine pairing not given here)
effect on plasma kinetics of radiolabelled rAM(1-50) [9]: did not modify plasma kinetics | effect on amount of 125I-rAM(1-50) retained by the liver, kidneys and heart ([10]; given before the tracer): significantly increased | effect on lung activity of 125I-rAM(1-50) ([10]; given before the tracer): important reduction in lung activity | single-pass pulmonary extraction of 125I-rAM(1-50) after administration of the substance [11]: 21.9±2.4% | mean extraction of 125I-rAM(1-50) after injection of the substance ([11]; same dog, second experiment): 12%
